From patent publication US20050227961A1, “Compositions and methods for treatment of neuropathic pain, fibromyalgia and chronic fatigue syndrome” (Vela Pharmaceuticals, Inc., priority 2004, published 2005)

System: lesioned hindpaw of rats suffering from neuropathic pain
Test: Neuropathic pain, thermal stimulation model in the rat (Chung spinal nerve ligature), paw withdrawal latency
Settings: for Paw Withdrawal Latent (seconds) for Lesioned Paw, mean ± SEM / Paw withdrawal latency, % change compared with vehicle control: thermal stimulation

Question: What does the source list for CN1CC[C@]23c4c5ccc(O)c4O[C@H]2[C@@H](O)C=C[C@H]3[C@H]1C5 [Morphine]?
Answer: Paw Withdrawal Latent (seconds) for Lesioned Paw, mean ± SEM (128 mg/kg p.o., at 30 min): 23.5 ± 6.4 s; Paw withdrawal latency, % change compared with vehicle control (128 mg/kg p.o., at 30 min): +104%; Paw Withdrawal Latent (seconds) for Lesioned Paw, mean ± SEM (128 mg/kg p.o., at 1 h): 40.5 ± 3.0 s; Paw withdrawal latency, % change compared with vehicle control (128 mg/kg p.o., at 1 h): +185%; Paw Withdrawal Latent (seconds) for Lesioned Paw, mean ± SEM (128 mg/kg p.o., at 2 h): 16.7 ± 6.0 s; Paw withdrawal latency, % change compared with vehicle control (128 mg/kg p.o., at 2 h): −7%; Paw Withdrawal Latent (seconds) for Lesioned Paw, mean ± SEM (128 mg/kg p.o., at 4 h): 21.7 ± 5.7 s; Paw withdrawal latency, % change compared with vehicle control (128 mg/kg p.o., at 4 h): +10%

Question: CN1c2ccccc2C(NCCCCCCC(=O)O)c2ccc(Cl)cc2S1(=O)=O (stereo not drawn) [Tianeptine, 7-[(3-chloro-6,11-dihydro-6-methyl-dibenzo[c,f][1,2]thiazepin-11-yl)amino]heptanoic acid S,S-dioxide] was tested. Which “Paw Withdrawal Latent (seconds) for Lesioned Paw, mean ± SEM” value (“Paw Withdrawal Latent … mean ± SEM” for short) (3 mg/kg p.o., at 30 min) did it give?
Answer: 12.7 ± 4.9 s

Question: What about the “Paw withdrawal latency, % change compared with vehicle control” value (“Paw withdrawal latency, % change” below) (3 mg/kg p.o., at 30 min) of the same compound?
Answer: +10%

Question: What about the “Paw Withdrawal Latent … mean ± SEM” value (3 mg/kg p.o., at 1 h) of the same compound?
Answer: 20.3 ± 5.3 s

Question: What about the “Paw withdrawal latency, % change” value (3 mg/kg p.o., at 1 h) of the same compound?
Answer: +43%

Question: And the “Paw Withdrawal Latent … mean ± SEM” value (3 mg/kg p.o., at 2 h)?
Answer: 20.6 ± 6.3 s

Question: And the “Paw withdrawal latency, % change” value (3 mg/kg p.o., at 2 h)?
Answer: +15%

Question: What about the “Paw Withdrawal Latent … mean ± SEM” value (3 mg/kg p.o., at 4 h) of the same compound?
Answer: 13.8 ± 4.4 s

Question: And the “Paw withdrawal latency, % change” value (3 mg/kg p.o., at 4 h)?
Answer: −30%

Question: What about the “Paw Withdrawal Latent … mean ± SEM” value (10 mg/kg p.o., at 30 min) of the same compound?
Answer: 19.2 ± 6.0 s

Question: What about the “Paw withdrawal latency, % change” value (10 mg/kg p.o., at 30 min) of the same compound?
Answer: +67%

Question: What about the “Paw Withdrawal Latent … mean ± SEM” value (10 mg/kg p.o., at 1 h) of the same compound?
Answer: 15.1 ± 4.5 s

Question: And the “Paw withdrawal latency, % change” value (10 mg/kg p.o., at 1 h)?
Answer: +6%

Question: What about the “Paw Withdrawal Latent … mean ± SEM” value (10 mg/kg p.o., at 2 h) of the same compound?
Answer: 16.1 ± 5.1 s

Question: And the “Paw withdrawal latency, % change” value (10 mg/kg p.o., at 2 h)?
Answer: −10%

Question: What about the “Paw Withdrawal Latent … mean ± SEM” value (10 mg/kg p.o., at 4 h) of the same compound?
Answer: 26.1 ± 5.4 s

Question: And the “Paw withdrawal latency, % change” value (10 mg/kg p.o., at 4 h)?
Answer: +32%

Question: And the “Paw Withdrawal Latent … mean ± SEM” value (30 mg/kg p.o., at 30 min)?
Answer: 33.3 ± 5.5 s

Question: And the “Paw withdrawal latency, % change” value (30 mg/kg p.o., at 30 min)?
Answer: +190%

Question: What about the “Paw Withdrawal Latent … mean ± SEM” value (30 mg/kg p.o., at 1 h) of the same compound?
Answer: 29.0 ± 7.3 s

Question: And the “Paw withdrawal latency, % change” value (30 mg/kg p.o., at 1 h)?
Answer: +104%

Question: And the “Paw Withdrawal Latent … mean ± SEM” value (30 mg/kg p.o., at 2 h)?
Answer: 16.9 ± 5.0 s

Question: And the “Paw withdrawal latency, % change” value (30 mg/kg p.o., at 2 h)?
Answer: −6%

Question: What about the “Paw Withdrawal Latent … mean ± SEM” value (30 mg/kg p.o., at 4 h) of the same compound?
Answer: 19.3 ± 5.8 s

Question: And the “Paw withdrawal latency, % change” value (30 mg/kg p.o., at 4 h)?
Answer: −2%

Question: What about the “paw withdrawal latency after thermal stimulation in the lesioned paw (result in words)” value (30 mg/kg, at 30 minutes) of the same compound?
Answer: significant increase
